Data as given in patent US8952024B2, “Herbicidal pyrimidone derivatives” (E I du Pont de Nemours and Company, priority 2009, dated 2015).
Like-named read-outs stand apart in the source and are kept apart here.

What was measured:
Assay type in all cases: in vivo
[1] = test system: bermudagrass (Cynodon dactylon); assay: Test B pre-/postemergence plant response; details: for pest or weed control at 125 g/ha: 125 g ai/ha
Summary of the method: (§1)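 Greenhouse herbicide screen. Pre- and postemergence (1- to 4-leaf) spray of compound in solvent/surfactant mixture; loam–sand soil for pre, peat/vermiculite medium for post. Visual control rating 0–100 at 13 to 15 days after treatment.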

wild oat (Avena fatua) = assay: Test B pre-/postemergence plant response; details: for pest or weed control at 31 g/ha: 31 g ai/ha; for pest or weed control at 125 g/ha: 125 g ai/ha
Summary of the method: as §1

[2] = test system: velvetleaf (Abutilon theophrasti); assay: Test B pre-/postemergence plant response; details: for pest or weed control at 31 g/ha: 31 g ai/ha; for pest or weed control at 125 g/ha: 125 g ai/ha
Summary of the method: as §1

[3] = test system: lambsquarters (Chenopodium album); assay: Test B pre-/postemergence plant response; details: for pest or weed control at 31 g/ha: 31 g ai/ha; for pest or weed control at 125 g/ha: 125 g ai/ha
Summary of the method: as §1

[4] = test system: woolly cupgrass (Eriochloa villosa); assay: Test B pre-/postemergence plant response; details: for pest or weed control at 31 g/ha: 31 g ai/ha; for pest or weed control at 125 g/ha: 125 g ai/ha
Summary of the method: as §1

corn (Zea mays) = assay: Test B pre-/postemergence plant response; details: for Corn plant response rating (crop injury, 0 = no effect, 100 = complete kill) at 31 g/ha: 31 g ai/ha; for Corn plant response rating (crop injury, 0 = no effect, 100 = complete kill) at 125 g/ha: 125 g ai/ha
Summary of the method: as §1

[5] = test system: winter barley (Hordeum vulgare); assay: Test B postemergence plant response
Summary of the method: (§2)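 Visual ratings from 0 (no effect) to 100 (complete control), made against controls 13–15 days after treatment, kept in a greenhouse. Compounds were applied postemergence to potted plants at the 1- to 4-leaf stage (2–18 cm).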

[6] = test system: canarygrass (Phalaris minor); assay: Test B postemergence plant response
Summary of the method: as §2

[7] = test system: windgrass (Apera spica-venti); assay: Test B postemergence plant response
Summary of the method: as §2

[8] = test system: chickweed (Stellaria media); assay: Test B postemergence plant response
Summary of the method: as §2

[9] = 62 g ai/ha, postemergence, 0 is no effect, 100 is complete control, 13 to 15 days
[10] = Preemergence, 250 g ai/ha, 0 to 100 scale

SMILES: COCCCn1c(-c2ccccc2)ncc(C(=O)C2=C(O)CCCC2=O)c1=O [Compound 81, 5-[(2-hydroxy-6-oxo-cyclohexen-1-yl)carbonyl]-3-(3-methoxypropyl)-2-phenyl-4(3H)-pyrimidinone]
- pest or weed control at 125 g/ha ([1]; Cynodon dactylon, post-emergence, Postemergence, visual rating after 13 to 15 days, scale 0 (no effect) to 100 (complete control)): 95%
- pest or weed control at 250 g/ha ([1]; Cynodon dactylon, post-emergence, Postemergence, 250 g ai/ha, scale 0 to 100 (0 no effect, 100 complete control), read-out: Plant response rating, Bermudagrass): 95%
- pest or weed control at 31 g/ha ([1]; Cynodon dactylon, pre-emergence, Preemergence, 31 g ai/ha, scale 0 to 100 (0 no effect, 100 complete control), read-out: Plant response rating, Bermudagrass): 100%
- pest or weed control at 62 g/ha ([1]; Cynodon dactylon, pre-emergence, Preemergence, 62 g ai/ha, scale 0 to 100, 0 no effect, 100 complete control, read-out: Plant response rating, Bermudagrass): 100%
- pest or weed control at 125 g/ha ([1]; Cynodon dactylon, pre-emergence, Preemergence, scale 0 to 100, 0 no effect, 100 complete control, read-out: Plant response rating, Bermudagrass): 100%
- Bermudagrass plant response rating ([1]; Preemergence, 250 g ai/ha, 0 to 100 scale, 0 no effect, 100 complete control): 100
- Oat, Wild plant response rating (0 to 100 scale) (wild oat (Avena fatua); [9]): 35
- pest or weed control at 31 g/ha (wild oat (Avena fatua); Avena fatua, post-emergence, postemergence, scale 0 to 100, 0 is no effect, 100 is complete control, read-out: Plant response rating, Oat, Wild): 25%
- pest or weed control at 125 g/ha (wild oat (Avena fatua); Avena fatua, post-emergence, Postemergence, visual rating after 13 to 15 days, scale 0 (no effect) to 100 (complete control)): 50%
- pest or weed control at 250 g/ha (wild oat (Avena fatua); Avena fatua, post-emergence, Postemergence, 250 g ai/ha, scale 0 to 100 (0 no effect, 100 complete control), read-out: Plant response rating, Oat, Wild): 55%
- pest or weed control at 31 g/ha (wild oat (Avena fatua); Avena fatua, pre-emergence, Preemergence, scale 0 to 100 (0 no effect, 100 complete control), read-out: Plant response rating, Oat, Wild): 0%
- pest or weed control at 62 g/ha (wild oat (Avena fatua); Avena fatua, pre-emergence, Preemergence, 62 g ai/ha, scale 0 to 100 (0 no effect, 100 complete control), read-out: Plant response rating, Oat, Wild): 0%
- pest or weed control at 125 g/ha (wild oat (Avena fatua); Avena fatua, pre-emergence, Preemergence, scale 0 to 100, 0 no effect, 100 complete control, read-out: Plant response rating, Oat, Wild): 0%
- Oat, Wild plant response rating (wild oat (Avena fatua); [10]): 0
- Velvetleaf plant response rating (0 to 100 scale) [2, 9]: 100
- pest or weed control at 31 g/ha ([2]; Abutilon theophrasti, post-emergence, 360 h, postemergence, scale 0 to 100, 0 is no effect, 100 is complete control, read-out: Plant response rating, Velvetleaf): 100%
- pest or weed control at 125 g/ha ([2]; Abutilon theophrasti, post-emergence, 360 h, Postemergence, visual rating after 13 to 15 days, scale 0 (no effect) to 100 (complete control)): 100%
- pest or weed control at 250 g/ha ([2]; Abutilon theophrasti, post-emergence, 360 h, Postemergence, 250 g ai/ha, scale 0 to 100 (0 no effect, 100 complete control), read-out: Plant response rating, Velvetleaf): 100%
- pest or weed control at 31 g/ha ([2]; Abutilon theophrasti, pre-emergence, 360 h, Preemergence, scale 0 to 100 (0 no effect, 100 complete control), read-out: Plant response rating, Velvetleaf): 100%
- pest or weed control at 62 g/ha ([2]; Abutilon theophrasti, pre-emergence, 360 h, Preemergence, 62 g ai/ha, scale 0 to 100 (0 no effect, 100 complete control), read-out: Plant response rating, Velvetleaf): 100%
- pest or weed control at 125 g/ha ([2]; Abutilon theophrasti, pre-emergence, 360 h, Preemergence, scale 0 to 100, 0 no effect, 100 complete control, read-out: Plant response rating, Velvetleaf): 100%
- Velvetleaf plant response rating [2, 10]: 100
- Lambsquarters plant response rating (0 to 100 scale) [3, 9]: 98
- pest or weed control at 31 g/ha ([3]; Chenopodium album, post-emergence, postemergence, scale 0 to 100, 0 is no effect, 100 is complete control, read-out: Plant response rating, Lambsquarters): 95%
- pest or weed control at 125 g/ha ([3]; Chenopodium album, post-emergence, Postemergence, visual rating after 13 to 15 days, scale 0 (no effect) to 100 (complete control)): 100%
- pest or weed control at 250 g/ha ([3]; Chenopodium album, post-emergence, Postemergence, 250 g ai/ha, scale 0 to 100 (0 no effect, 100 complete control), read-out: Plant response rating, Lambsquarters): 100%
- pest or weed control at 31 g/ha ([3]; Chenopodium album, pre-emergence, Preemergence, scale 0 to 100 (0 no effect, 100 complete control), read-out: Plant response rating, Lambsquarters): 98%
- pest or weed control at 62 g/ha ([3]; Chenopodium album, pre-emergence, Preemergence, 62 g ai/ha, scale 0 to 100, 0 no effect, 100 complete control, read-out: Plant response rating, Lambsquarters): 98%
- pest or weed control at 125 g/ha ([3]; Chenopodium album, pre-emergence, Preemergence, scale 0 to 100, 0 no effect, 100 complete control, read-out: Plant response rating, Lambsquarters): 98%
- Lambsquarters plant response rating [3, 10]: 98
- Cupgrass, Woolly plant response rating (0 to 100 scale) [4, 9]: 75
- pest or weed control at 31 g/ha ([4]; Eriochloa villosa, post-emergence, postemergence, scale 0 to 100, 0 is no effect, 100 is complete control, read-out: Plant response rating, Cupgrass, Woolly): 65%
- pest or weed control at 125 g/ha ([4]; Eriochloa villosa, post-emergence, Postemergence, visual rating after 13 to 15 days, scale 0 (no effect) to 100 (complete control)): 90%
- pest or weed control at 250 g/ha ([4]; Eriochloa villosa, post-emergence, Postemergence, 250 g ai/ha, scale 0 to 100 (0 no effect, 100 complete control), read-out: Plant response rating, Cupgrass, Woolly): 90%
- pest or weed control at 31 g/ha ([4]; Eriochloa villosa, pre-emergence, Preemergence, scale 0 to 100 (0 no effect, 100 complete control), read-out: Plant response rating, Cupgrass, Woolly): 40%
- pest or weed control at 62 g/ha ([4]; Eriochloa villosa, pre-emergence, Preemergence, 62 g ai/ha, scale 0 to 100, 0 no effect, 100 complete control, read-out: Plant response rating, Cupgrass, Woolly): 55%
- pest or weed control at 125 g/ha ([4]; Eriochloa villosa, pre-emergence, Preemergence, scale 0 to 100, 0 no effect, 100 complete control, read-out: Plant response rating, Cupgrass, Woolly): 75%
- Cupgrass, Woolly plant response rating [4, 10]: 85
- Corn plant response rating (0 to 100 scale) (corn (Zea mays); [9]): 10
- Corn plant response rating (corn (Zea mays); [10]): 55
- Corn plant response rating (crop injury, 0 = no effect, 100 = complete kill) at 31 g/ha (corn (Zea mays); Zea mays, post-emergence, postemergence, scale 0 to 100, 0 is no effect, 100 is complete control): 5%
- Corn plant response rating (crop injury, 0 = no effect, 100 = complete kill) at 125 g/ha (corn (Zea mays); Zea mays, post-emergence, Postemergence, visual rating after 13 to 15 days, scale 0 (no effect) to 100 (complete control)): 15%
- Corn plant response rating (crop injury, 0 = no effect, 100 = complete kill) at 250 g/ha (corn (Zea mays); Zea mays, post-emergence, Postemergence, 250 g ai/ha, scale 0 to 100 (0 no effect, 100 complete control)): 65%
- Corn plant response rating (crop injury, 0 = no effect, 100 = complete kill) at 31 g/ha (corn (Zea mays); Zea mays, pre-emergence, Preemergence, scale 0 to 100 (0 no effect, 100 complete control)): 40%
- Corn plant response rating (crop injury, 0 = no effect, 100 = complete kill) at 62 g/ha (corn (Zea mays); Zea mays, pre-emergence, Preemergence, 62 g ai/ha, scale 0 to 100, 0 no effect, 100 complete control): 40%
- Corn plant response rating (crop injury, 0 = no effect, 100 = complete kill) at 125 g/ha (corn (Zea mays); Zea mays, pre-emergence, Preemergence, scale 0 to 100, 0 no effect, 100 complete control): 50%
- Barley plant response rating (0 to 100 scale) [5, 9]: 0
- plant injury at 31 g/ha ([5]; Hordeum vulgare, post-emergence, 31 g ai/ha, postemergence, scale 0 to 100, 0 is no effect, 100 is complete control, read-out: Plant response rating, Barley): 0%
- plant injury at 125 g/ha ([5]; Hordeum vulgare, post-emergence, Postemergence, 125 g ai/ha, visual rating after 13 to 15 days, scale 0 (no effect) to 100 (complete control)): 0%
- plant injury at 250 g/ha ([5]; Hordeum vulgare, post-emergence, Postemergence, 250 g ai/ha, scale 0 to 100 (0 no effect, 100 complete control), read-out: Plant response rating, Barley): 5%
- Canarygrass plant response rating (0 to 100 scale) [6, 9]: 5
- pest or weed control at 31 g/ha ([6]; Phalaris minor, post-emergence, 360 h, 31 g ai/ha, postemergence, scale 0 to 100, 0 is no effect, 100 is complete control, read-out: Plant response rating, Canarygrass): 0%
- pest or weed control at 125 g/ha ([6]; Phalaris minor, post-emergence, 360 h, Postemergence, 125 g ai/ha, visual rating after 13 to 15 days, scale 0 (no effect) to 100 (complete control)): 10%
- pest or weed control at 250 g/ha ([6]; Phalaris minor, post-emergence, 360 h, Postemergence, 250 g ai/ha, scale 0 to 100 (0 no effect, 100 complete control), read-out: Plant response rating, Canarygrass): 20%
- Windgrass plant response rating (0 to 100 scale) [7, 9]: 50
- pest or weed control at 31 g/ha ([7]; Apera spica-venti, post-emergence, 360 h, 31 g ai/ha, postemergence, scale 0 to 100, 0 is no effect, 100 is complete control, read-out: Plant response rating, Windgrass): 10%
- pest or weed control at 125 g/ha ([7]; Apera spica-venti, post-emergence, 360 h, Postemergence, 125 g ai/ha, visual rating after 13 to 15 days, scale 0 (no effect) to 100 (complete control)): 60%
- pest or weed control at 250 g/ha ([7]; Apera spica-venti, post-emergence, 360 h, Postemergence, 250 g ai/ha, scale 0 to 100 (0 no effect, 100 complete control), read-out: Plant response rating, Windgrass): 70%
- Chickweed plant response rating (0 to 100 scale) [8, 9]: 98
- pest or weed control at 31 g/ha ([8]; Stellaria media, post-emergence, 360 h, 31 g ai/ha, postemergence, scale 0 to 100, 0 is no effect, 100 is complete control, read-out: Plant response rating, Chickweed): 95%
- pest or weed control at 125 g/ha ([8]; Stellaria media, post-emergence, 360 h, Postemergence, 125 g ai/ha, visual rating after 13 to 15 days, scale 0 (no effect) to 100 (complete control)): 98%
- pest or weed control at 250 g/ha ([8]; Stellaria media, post-emergence, 360 h, Postemergence, 250 g ai/ha, scale 0 to 100 (0 no effect, 100 complete control), read-out: Plant response rating, Chickweed): 100%
